From article PMC2725291, “Genetic and Molecular Basis of Individual Differences in Human Umami Taste Perception” (PLoS ONE, 2009)
Where a name gives a salt, the structure may show the parent alone.

What was measured:
[1] = system: TAS1R1/TAS1R3 variants; assay: Ca2+ imaging (FlexStation II), comparison across receptor variants (AR, TR, AC, TC); type: cell-based, human; settings: lactisole 5 mM; 20 mM MSG+0.5 mM IMP; Figure S5
From the text: Intronless human TAS1Rs and Gαl6 expression constructs were generated in the pEF-DEST51 Gateway vector (Invitrogen) by genomic DNA-based methods. To subclone each gene into the vector, a Kozak cassette was introduced at the 5′ end before the start codon. Gαl6 chimeras were generated by PCR with mutagenic primers. The carboxyl-terminal tail of Gαl6, five-residue (EINLL) was replaced by its counterpart from Gαi3 (ECGLY; Gα16-i3), Gαgust (DCGLF; Gα16-gust), and Gα16-gust44 was generated as described. The integrity of all DNA constructs was confirmed by DNA sequencing. Point mutations in TAS1Rs were made using the same overlapping PCR strategy with mutagenic primers.
HEK293 cells were cultured at 37°C under a humidified atmosphere containing 5% CO2 in Dulbecco's modified Eagle's medium supplemented with 10% fetal bovine serum. To obtain reproducible Ca^2+ responses, cells were split every 2 days before cells become confluent. Cells were discarded after 2 months of passages and new cells were prepared from frozen-stock. For calcium imaging experiments, cells were seeded onto a 35 mm recording chamber or poly-D-lysine coated 96-well black-wall, clear-bottom recording plates. After 24 hrs at 37°C, confluent cells (60∼70%) were washed in OptiMEM medium supplemented with GlutaMAX-I (invitrogen) and plasmid DNAs were transiently cotransfected into HEK293 cells using Lipofectamine2000 regent (invitrogen) (2.0 µl per 1.0 µg DNA). […]
Student's t-test was used for detection of differences in the mean recognition thresholds between males and females. […] The mean values (the center±S.E. of gaussian curve on X-axis) in the distribution of recognition thresholds defined by TAS1R1/TAS1R3 haplotypes (TAS1R1-372A/TAS1R3-757R homozygotes, TAS1R1-372T/TAS1R3-757R homozygotes, homo- and heterozygotes containing TAS1R3-757C) were calculated using gauss fit function of Origin 5.0 (OriginLab Corp). For Ca^2+ imaging analysis, data were normalized to response to 10 µM ISO, and mean values (±S.E.) were calculated from 10∼18 independent analyses.

[2] = system: 254 Japanese subjects; assay: Taste recognition threshold measurement (staircase method); type: in vivo, human; settings: other basic taste stimuli, Figure S1
From the text: A total of 254 healthy, non-obese, non-diabetic Japanese volunteers [male/female: 141/113, age: 20–36, body mass index (BMI); 16.5–24.8] participated in this study. The purpose of the study as well as the methods and procedure were explained to the participants and the patients in this manuscript have given written informed consent. All protocols were approved by the local ethics committee at Kyushu University. Subjects were asked to refrain from consuming alcohol the day before testing, caffeine on the day of testing, and food during the experimentation period. The inclusion criteria were satisfactory state of oral hygiene, non-smoking, regular work, sleep, and meal schedules.
As MSG contains sodium, great care was taken to compare individual sensitivities to MSG relative to NaCl. […] The differences in concentrations in the present study were in 0.3 log steps, which mean step-wise increases in concentration by a factor of 2.0. All solutions were made up in distilled water and used at room temperature. The testing procedure was the staircase-method modified from Pasquet et al.. Each subject evaluated all 7 tastants. The seven series of solutions were presented one after another within a single section. Within each series, the solutions with each 2.0 ml were applied to the whole tongue of each subject with a pipet in order of ascending concentrations. The subjects were asked not to swallow test solutions and rinse their mouth between two solutions with distilled water. The subject was requested to correctly name the taste quality in each series. Once the taste of two successive concentrations was recognized successfully, the subject was given the previous unrecognized concentration (first reversal). The points at which concentration sequence changed from a decrease to an increase or vice versa were designated “reversals”. The procedure was terminated after five reversals, and the threshold was calculated as the mean of the concentration values of the last four reversals.
Student's t-test was used for detection of differences in the mean recognition thresholds between males and females. The χ^2 test was used for checking Hardy-Weinberg Equilibrium (HWE) for the genotype frequencies in samples to control genotyping errors, for detection of differences in genotype and allele frequencies between high and low taste recognition threshold groups. Yates'χ^2 test was used when the number was less than 10. The mean values (the center±S.E. of gaussian curve on X-axis) in the distribution of recognition thresholds defined by TAS1R1/TAS1R3 haplotypes (TAS1R1-372A/TAS1R3-757R homozygotes, TAS1R1-372T/TAS1R3-757R homozygotes, homo- and heterozygotes containing TAS1R3-757C) were calculated using gauss fit function of Origin 5.0 (OriginLab Corp). For Ca^2+ imaging analysis, data were normalized to response to 10 µM ISO, and mean values (±S.E.) were calculated from 10∼18 independent analyses. EC50 values were calculated from individual cumulative concentration-response data using sigmoid fit functions of Origin 5.0. One factor ANOVAs were conducted for detection of differences in the distributions of recognition thresholds for umami substances among 3 groups defined by TAS1R1/TAS1R3 haplotypes, and in the responses to 5, 20 and 50 mM MSG or 0.3, 5 and 50 mM M+I among TAS1R1/TAS1R3 variants in Ca^2+ imaging analysis. When the ANOVA was significant, post-hoc Student's t-test or Fisher's PLSD test was performed to compare individual means at each umami compound or concentration. Significance level was 0.05.

[3] = biological target: T1, TAS1R1-372A and TAS1R3-757R (Homo sapiens, UniProt Q7RTX0+Q7RTX1, C757R); assay: Ca2+ imaging (bath perfusion) in HEK cells transfected with TAS1R1-372A, TAS1R3-757R and Gα16-i3; type: cell-based
T1 construct: expressed in transfected cells; host or cells: HEK293
T1 sequence (Q7RTX1 21-841): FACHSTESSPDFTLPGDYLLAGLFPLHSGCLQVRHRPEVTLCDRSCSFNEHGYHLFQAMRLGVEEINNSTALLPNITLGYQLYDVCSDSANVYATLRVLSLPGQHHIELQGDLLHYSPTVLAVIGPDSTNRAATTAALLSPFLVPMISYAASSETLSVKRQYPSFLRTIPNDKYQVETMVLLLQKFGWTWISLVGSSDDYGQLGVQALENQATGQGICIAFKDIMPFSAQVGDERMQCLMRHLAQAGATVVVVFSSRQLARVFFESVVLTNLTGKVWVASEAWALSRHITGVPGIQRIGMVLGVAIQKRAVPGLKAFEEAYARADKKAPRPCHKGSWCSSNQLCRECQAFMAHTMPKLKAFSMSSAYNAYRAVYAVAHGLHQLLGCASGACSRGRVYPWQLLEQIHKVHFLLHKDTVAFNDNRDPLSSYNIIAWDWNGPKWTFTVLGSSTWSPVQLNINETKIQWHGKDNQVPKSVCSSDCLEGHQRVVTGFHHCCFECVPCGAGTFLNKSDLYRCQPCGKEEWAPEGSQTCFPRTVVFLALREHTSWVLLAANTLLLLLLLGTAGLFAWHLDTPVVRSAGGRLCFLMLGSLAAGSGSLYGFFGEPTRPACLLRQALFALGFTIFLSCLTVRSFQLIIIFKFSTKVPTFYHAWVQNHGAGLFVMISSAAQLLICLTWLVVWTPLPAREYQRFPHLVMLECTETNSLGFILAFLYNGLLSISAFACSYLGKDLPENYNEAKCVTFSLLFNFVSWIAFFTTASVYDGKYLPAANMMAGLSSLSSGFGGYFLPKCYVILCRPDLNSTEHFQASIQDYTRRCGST
T1 sequence (Q7RTX0 21-852 C757R): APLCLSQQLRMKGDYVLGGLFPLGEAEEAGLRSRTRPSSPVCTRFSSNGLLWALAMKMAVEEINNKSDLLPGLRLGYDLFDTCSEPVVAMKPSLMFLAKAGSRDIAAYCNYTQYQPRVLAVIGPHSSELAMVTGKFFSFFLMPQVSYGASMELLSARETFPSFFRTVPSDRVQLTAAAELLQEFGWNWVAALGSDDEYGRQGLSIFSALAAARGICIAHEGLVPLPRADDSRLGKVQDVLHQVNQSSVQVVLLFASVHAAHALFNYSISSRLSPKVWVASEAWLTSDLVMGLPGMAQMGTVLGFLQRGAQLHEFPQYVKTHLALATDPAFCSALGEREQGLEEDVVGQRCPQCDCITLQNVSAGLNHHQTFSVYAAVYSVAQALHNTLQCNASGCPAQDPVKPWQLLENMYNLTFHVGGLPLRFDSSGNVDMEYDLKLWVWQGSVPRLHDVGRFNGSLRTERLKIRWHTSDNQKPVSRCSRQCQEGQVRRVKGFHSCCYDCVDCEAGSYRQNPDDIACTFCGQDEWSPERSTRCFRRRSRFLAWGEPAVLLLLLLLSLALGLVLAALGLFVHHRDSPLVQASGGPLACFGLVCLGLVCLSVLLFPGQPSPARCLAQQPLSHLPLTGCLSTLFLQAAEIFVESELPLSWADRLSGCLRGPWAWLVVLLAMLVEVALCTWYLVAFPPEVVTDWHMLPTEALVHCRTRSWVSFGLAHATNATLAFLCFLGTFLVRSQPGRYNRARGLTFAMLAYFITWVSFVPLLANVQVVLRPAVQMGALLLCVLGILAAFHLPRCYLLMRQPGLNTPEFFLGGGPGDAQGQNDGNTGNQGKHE
Description: HEK293 cells were cultured at 37°C under a humidified atmosphere containing 5% CO2 in Dulbecco's modified Eagle's medium supplemented with 10% fetal bovine serum. To obtain reproducible Ca^2+ responses, cells were split every 2 days before cells become confluent. Cells were discarded after 2 months of passages and new cells were prepared from frozen-stock. For calcium imaging experiments, cells were seeded onto a 35 mm recording chamber or poly-D-lysine coated 96-well black-wall, clear-bottom recording plates. After 24 hrs at 37°C, confluent cells (60∼70%) were washed in OptiMEM medium supplemented with GlutaMAX-I (invitrogen) and plasmid DNAs were transiently cotransfected into HEK293 cells using Lipofectamine2000 regent (invitrogen) (2.0 µl per 1.0 µg DNA). TAS1Rs (or their mutants) and Gαl6-i3 were transfected using 1.5 and 1.0 µg of plasmid for 35 mm recording chambers, 0.09 and 0.06 µg of plasmid per well for 96-well plates, respectively. […] Immuno staining and Ca^2+ imaging assays were performed 36∼40 hrs after transfection.
Two Ca^2+ imaging systems were used. A bath perfusion system was used for kinetics of activation. Transfected cells in 35 mm recording chambers were washed in Hank's balanced salt solution (HBSS) containing 10 mM HEPES, pH 7.4, and loaded with 3.0 µM Fluo-4 acetoxymethyl ester (invitrogen) for 1.0 hr at 37°C. The dye-loaded cells were subjected to Ca^2+ imaging. Taste solutions diluted in HBSS were applied sequentially to the cells for 30 s with a peristaltic pump at a flow rate of 1.5 ml/min, and fluorescence images were obtained using a S Fluor ×20/0.75 objective lens (Nikon) via a cooled-CCD camera (C6790, Hamamatsu Photonics) fitted to a TE300 microscope (Nikon). Acquisition and analysis of these fluorescence images used AquaCosmos software (v. 1.3, Hamamatsu Photonics). A 3 min interval was left between each tastant application to ensure that the cells were not desensitized as a result of the previous application of tastants. Responses were measured from 30 individual responding cells. […] Isoproterenol (ISO, 10 µM) was used as positive control, which stimulates endogenous β-adrenergic receptors, providing that the Gα16-dependent signal transduction cascade was functional.

Row | Ca2+ response of transfected HEK cells ([3]; 50 mM) | Structure (SMILES) | differences in distributions of recognition thresholds among TR, AR and TAS1R3-757C groups [2] | further results
1 | did not respond | OC[C@H]1O[C@@](CO)(O[C@H]2O[C@H](CO)[C@@H](O)[C@H](O)[C@H]2O)[C@@H](O)[C@@H]1O [sucrose] | no such differences | –
2 | did not respond | OC[C@H]1OC(O)[C@H](O)[C@@H](O)[C@@H]1O (stereo partly shown) [glucose] | – | –

Continued, compound first:

Row | Structure (SMILES) | Ca2+ response of transfected HEK cells ([3]; 50 mM) | differences in distributions of recognition thresholds among TR, AR and TAS1R3-757C groups [2] | further results
3 | COc1ccc(OC(C)C(=O)O)cc1 (stereo not shown) [lactisole] | – | – | inhibition effect on the responses of TAS1R1/TAS1R3 variants [1]: clearly observed
4 | [Cl-].[Na+] [NaCl] | did not respond | no such differences | –
5 | C[C@H](NC(=NCC(=O)O)Nc1ccc(C#N)cc1)c1ccccc1 [SC45647] | – | – | Ca2+ response of transfected HEK cells ([3]; 0.3 mM (data not shown)): did not respond
6 | Cl [HCl] | – | no such differences | –
7 | O=C1NS(=O)(=O)c2ccccc21 [saccharin] | – | – | Ca2+ response of transfected HEK cells ([3]; 1 mM (data not shown)): did not respond
8 | NC(=S)Nc1ccccc1 [PTC, phenylthiocarbamide] | – | no such differences | –
